Laboratory results as given in PubChem BioAssay (NCI).
Values joined by “and” are separate entries in the source; they are usually repeats but may differ in a detail not shown here. Identical values can stand only once.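 48-hour exposure; five concentrations; linearly interpolated endpoints. At the GI50, growth is halved. TGI is the concentration that stops growth completely.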

What was measured:
MDA-N = assay: inhibition of tumour cell growth, NCI panel, 48 h
RXF-631 renal = assay: inhibition of tumour cell growth, NCI panel, 48 h

Compound	TGI (MDA-N)	TGI (RXF-631 renal)	GI50 (MDA-N)
CN[C@@H]1C[C@H]2O[C@@](C)([C@@H]1OC)n1c3ccccc3c3c4c(c5c6ccccc6n2c5c31)C(=O)N[C@@H]4O	1.6 µM		
COc1ccc2c(c1)[n+]([O-])c(/C(C)=N/NC(=O)CC#N)c[n+]2[O-]		> 100 µM	
Nc1ccc(S(=O)(=O)NCc2nccs2)cc1	54.1 µM		
CNC(=S)N/N=C/c1ccc([N+](=O)[O-])s1	> 10 µM		
CC(C)Oc1cc(O)c2c(c1)OCC=C2CCC(=O)O	54.7 µM		
CCN(CC)CCNc1n[n+]([O-])c2ccccc2[n+]1[O-]	> 100 µM and 31.8 µM		
O=Cc1ccc(-c2cccs2)s1	> 100 µM	12.9 µM	
Cc1ccc2c(c1)C(c1cccc3ccccc13)OC2=O (configuration not stated)		> 100 µM	
CCOC(=O)[C@H]1Nc2ccc(OC)cc2C2c3ccccc3CC21 (some centres not stated)		> 100 µM	
COC(=O)c1nc(N)[nH]c(=O)c1CCCCCc1c(C(=O)OC)nc(N)[nH]c1=O		> 50 µM	
CC[C@@]1(O)C(=O)OCc2c1cc1n(c2=O)Cc2cc3cc(N)ccc3nc2-1	1.4 µM and 0.27 µM		0.227 µM
C1=CC=C2NCCOCCNC3=CC=CC=CC3=NCCOCCN=C2C=C1		> 100 µM	
CCOC(=O)C(=O)Nc1c(C(C)C)cccc1C(C)C		> 100 µM	
O=C1NC2(CN3CCC2CC3)C(=O)N1CN(Cc1ccccc1)c1ccccc1 (configuration not stated)	> 100 µM		
c1nnc(NCNc2nncs2)s1	> 100 µM		
Cc1nn(-c2ccccc2)c(-c2ccccc2[N+](=O)[O-])c1CC#N		> 100 µM	
Cn1c(=O)c2c(ncn2CN2CCN(Cn3cnc4c3c(=O)n(C)c(=O)n4C)CC2)n(C)c1=O	> 100 µM		
CCOC(=O)c1cc(/C=C/C(C)=C/C(=O)OC)n(C)c1C		> 100 µM	
CCOc1ccccc1NC(=O)CCc1nc(=S)[nH][nH]1		> 100 µM	
O=C(O)CSc1ncccc1[N+](=O)[O-]	> 100 µM		
CCN(CC)c1ccc2c(c1)Nc1cc(=C(C#N)C#N)c3ccccc3c1=N2		> 100 µM	
Fc1cccc(Cl)c1/C=N\N=C1c2ccccc2-c2ccccc21	> 100 µM		
O=C1c2ccccc2-n2c1nc1ccccc1c2=O	32.4 µM		
Cc1nc(C(N)=S)sc1C(=O)C/C(=N/N)C(=O)Nc1cccc(Cl)c1C	> 100 µM		
CC1CCN(CC(=O)N2c3ccccc3Sc3cc4ccccc4cc32)CC1	> 100 µM		
CCOC(=O)CC1NC(=O)CS1 (configuration not stated)		> 100 µM	
O=c1[nH]c(=O)n(C2OC3COC2C3O)cc1F (configuration not stated)		> 100 µM	
Cc1c2cc[n+](C)cc2c(C)c2c1[nH]c1ccc(O)c(OCC(F)(F)F)c12		15.4 µM	
COC1CC(OC(=O)c2ccccc2)C(OC(=O)c2ccccc2)C(C)O1 (configuration not stated)	> 100 µM		
CCN1CSC(=S)N(CC)C1	> 100 µM		
